{"source": "ChEMBL document CHEMBL5104163", "about": "“Modulation of key antioxidant enzymes and cell cycle arrest as a possible antifungal mode of action of cinnamaldehyde based azole derivative” (2022)", "key": {"[1]": {"test_system": "[Candida] auris", "assay": "Induction of oxidative stress in Candida auris MRL6057 incubated for 2 hrs assessed as increase in SOD activity", "assay_type": "functional, organism-based", "conditions": "Candidozyma auris"}, "[2]": {"test_system": "[Candida] auris", "assay": "Antifungal activity against Candida auris MRL6057", "assay_type": "functional", "conditions": "Candidozyma auris"}, "[3]": {"test_system": "[Candida] auris", "assay": "Induction of oxidative stress in Candida auris MRL6057 incubated for 2 hrs and assessed as increase in LPO activity", "assay_type": "functional, organism-based", "conditions": "Candidozyma auris"}, "[4]": {"test_system": "[Candida] auris", "assay": "Induction of oxidative stress in Candida auris MRL6057 incubated for 2 hrs and assessed as upregulation of SOD4 mRNA expression measured by RT-qPCR analysis", "assay_type": "functional, organism-based", "conditions": "Candidozyma auris"}, "[5]": {"test_system": "[Candida] auris", "assay": "Induction of oxidative stress in Candida auris MRL6057 incubated for 2 hrs and assessed as upregulation of CATA mRNA expression measured by RT-qPCR analysis", "assay_type": "functional, organism-based", "conditions": "Candidozyma auris"}, "[6]": {"test_system": "[Candida] auris", "assay": "Induction of cell cycle arrest in Candida auris MRL6057 cells assessed as cell population at S phase at 0.5xMIC measured by Muse cell analyzer", "assay_type": "functional, Candidozyma auris"}, "[7]": {"test_system": "[Candida] auris", "assay": "Induction of oxidative stress in Candida auris MRL6057 incubated for 2 hrs and assessed as downregulation of GST1 mRNA expression measured by RT-qPCR analysis", "assay_type": "functional, organism-based", "conditions": "Candidozyma auris"}, "[8]": {"test_system": "[Candida] auris", "assay": "Induction of oxidative stress in Candida auris MRL6057 incubated for 2 hrs assessed as decrease in GLR activity", "assay_type": "functional, organism-based", "conditions": "Candidozyma auris"}, "[9]": {"test_system": "[Candida] auris", "assay": "Induction of cell cycle arrest in Candida auris MRL6057 cells assessed as cell population at S phase at MIC measured by Muse cell analyzer", "assay_type": "functional, Candidozyma auris"}, "[10]": {"test_system": "[Candida] auris", "assay": "Antifungal activity against Candida auris MRL6057 assessed as dead cells at 0.49 ug/ml", "assay_type": "functional, Candidozyma auris", "conditions": "dose 0.49 µg/ml"}, "[11]": {"test_system": "[Candida] auris", "assay": "Antifungal activity against Candida auris MRL6057 assessed as dead cells at 0.98 ug/ml", "assay_type": "functional, Candidozyma auris", "conditions": "dose 0.98 µg/ml"}, "[12]": {"test_system": "[Candida] auris", "assay": "Induction of oxidative stress in Candida auris MRL6057 incubated for 2 hrs and assessed as downregulation of GSHR mRNA expression measured by RT-qPCR analysis", "assay_type": "functional, organism-based", "conditions": "Candidozyma auris"}, "[13]": {"test_system": "[Candida] auris", "assay": "Antifungal activity against Candida auris MRL6057 assessed as dead cells at 1.96 ug/ml", "assay_type": "functional, Candidozyma auris", "conditions": "dose 1.96 µg/ml"}, "[14]": {"test_system": "[Candida] auris", "assay": "Induction of cell cycle arrest in Candida auris MRL6057 cells assessed as cell population at G2/M phase at MIC measured by Muse cell analyzer", "assay_type": "functional, Candidozyma auris"}, "[15]": {"test_system": "[Candida] auris", "assay": "Induction of cell cycle arrest in Candida auris MRL6057 cells assessed as cell population at G2/M phase at 0.5xMIC measured by Muse cell analyzer", "assay_type": "functional, Candidozyma auris"}, "[16]": {"test_system": "[Candida] auris", "assay": "Induction of cell cycle arrest in Candida auris MRL6057 cells assessed as cell population at G0/G1 phase at 0.5xMIC measured by Muse cell analyzer", "assay_type": "functional, Candidozyma auris"}, "[17]": {"test_system": "[Candida] auris", "assay": "Induction of oxidative stress in Candida auris MRL6057 incubated for 2 hrs assessed as increase in GPx activity", "assay_type": "functional, organism-based", "conditions": "Candidozyma auris"}, "[18]": {"test_system": "[Candida] auris", "assay": "Induction of oxidative stress in Candida auris MRL6057 incubated for 2 hrs and assessed as upregulation of GPx3 mRNA expression measured by RT-qPCR analysis", "assay_type": "functional, organism-based", "conditions": "Candidozyma auris"}, "[19]": {"test_system": "[Candida] auris", "assay": "Induction of cell cycle arrest in Candida auris MRL6057 cells assessed as cell population at G0/G1 phase at MIC measured by Muse cell analyzer", "assay_type": "functional, Candidozyma auris"}, "[20]": {"test_system": "[Candida] auris", "assay": "Induction of oxidative stress in Candida auris MRL6057 incubated for 2 hrs assessed as increase in CAT activity", "assay_type": "functional, organism-based", "conditions": "Candidozyma auris"}, "[21]": {"test_system": "[Candida] auris", "assay": "Induction of oxidative stress in Candida auris MRL6057 incubated for 2 hrs assessed as decrease in GST activity", "assay_type": "functional, organism-based", "conditions": "Candidozyma auris"}, "[22]": {"test_system": "Candida albicans", "assay": "Antifungal activity against Candida albicans assessed as dead cells", "assay_type": "functional"}, "[23]": {"test_system": "[Candida] auris", "assay": "Antifungal activity against clinical strain Candida auris", "assay_type": "functional", "conditions": "Candidozyma auris"}}, "note": "Activity calls are given as the source filed them. No cut-off for these calls is given here.", "data": [{"smiles": "O=C(Cn1nnc(/C=C/c2ccccc2)n1)N/N=C/c1ccc([N+](=O)[O-])cc1", "values": [{"measurement": "Activity", "setting": "[1]", "value": "Active"}, {"measurement": "MFC", "setting": "[2]", "value": 1.96, "unit": "µg/mL"}, {"measurement": "MIC", "setting": "[2]", "value": 0.98, "unit": "µg/mL"}, {"measurement": "Activity", "setting": "[3]", "value": "Active"}, {"measurement": "Activity", "setting": "[4]", "value": "Active"}, {"measurement": "Activity", "setting": "[5]", "value": "Active"}, {"measurement": "Activity", "setting": "[6]", "value": 44.5, "unit": "%"}, {"measurement": "Activity", "setting": "[7]", "value": "Active"}, {"measurement": "Activity", "setting": "[8]", "value": "Active"}, {"measurement": "Activity", "setting": "[9]", "value": 49.3, "unit": "%"}, {"measurement": "Activity", "setting": "[10]", "value": 69.2, "unit": "%"}, {"measurement": "Activity", "setting": "[11]", "value": 83.1, "unit": "%"}, {"measurement": "Activity", "setting": "[12]", "value": "Active"}, {"measurement": "Activity", "setting": "[13]", "value": 99.9, "unit": "%"}, {"measurement": "Activity", "setting": "[14]", "value": 48.3, "unit": "%"}, {"measurement": "Activity", "setting": "[15]", "value": 7.2, "unit": "%"}, {"measurement": "Activity", "setting": "[16]", "value": 48.2, "unit": "%"}, {"measurement": "Activity", "setting": "[17]", "value": "Active"}, {"measurement": "Activity", "setting": "[18]", "value": "Active"}, {"measurement": "Activity", "setting": "[19]", "value": 2.3, "unit": "%"}, {"measurement": "Activity", "setting": "[20]", "value": "Active"}, {"measurement": "Activity", "setting": "[21]", "value": "Active"}, {"measurement": "Activity", "setting": "[22]", "value": 75, "unit": "%"}]}, {"smiles": "C[C@@H]1[C@H](O)[C@@H](C)/C=C/C=C/C=C/C=C/C=C/C=C/C=C/[C@H](O[C@@H]2O[C@H](C)[C@@H](O)[C@H](N)[C@@H]2O)C[C@@H]2O[C@](O)(C[C@@H](O)C[C@@H](O)[C@H](O)CC[C@@H](O)C[C@@H](O)CC(=O)O[C@H]1C)C[C@H](O)[C@H]2C(=O)O", "note": "[AMPHOTERICIN B]", "values": [{"measurement": "MFC", "setting": "[2]", "value": 8, "unit": "µg/mL"}, {"measurement": "MIC", "setting": "[2]", "value": 4, "unit": "µg/mL"}, {"measurement": "MIC", "setting": "[23]", "value": "≥ 2", "unit": "µg/mL"}]}]}
